Laboratory results from PubChem BioAssay (NCI).
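These data come from cells grown in 96-well plates and exposed to compound for 48 hours at five concentrations. The concentration for full growth arrest is given as TGI.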

Assays:
Assay in all cases: inhibition of tumour cell growth, NCI panel, 48 h
EKVX NSCLC = test system: EKVX NSCLC
HS 578T breast = test system: HS 578T breast
ACHN renal = test system: ACHN renal
MALME-3M melanoma = test system: MALME-3M melanoma
COLO 205 colon = test system: COLO 205 colon
SN12C renal = test system: SN12C renal
HCC-2998 colon = test system: HCC-2998 colon
SR leukemia = test system: SR leukemia
HCT-15 colon = test system: HCT-15 colon
UO-31 renal = test system: UO-31 renal
NCI-H460 lung = test system: NCI-H460 lung
T-47D breast = test system: T-47D breast
BT-549 breast = test system: BT-549 breast
SF-268 CNS = test system: SF-268 CNS
HL-60(TB) leukemia = test system: HL-60(TB) leukemia
HT29 colon = test system: HT29 colon
CAKI-1 renal = test system: CAKI-1 renal
RXF 393 renal = test system: RXF 393 renal
M14 melanoma = test system: M14 melanoma
OVCAR-8 ovarian = test system: OVCAR-8 ovarian

CCC/C(Cl)=N/OC(=O)Nc1cc(C(F)(F)F)ccc1OC
TGI (EKVX NSCLC): 19.9 µM
TGI (HS 578T breast): > 72.2 µM
TGI (ACHN renal): 26.1 µM
TGI (MALME-3M melanoma): 7.34 µM
TGI (COLO 205 colon): 3.45 µM
TGI (SN12C renal): 27.4 µM
TGI (HCC-2998 colon): 30.6 µM
TGI (SR leukemia): 13.5 µM
TGI (HCT-15 colon): 16.6 µM
TGI (UO-31 renal): 29.9 µM
TGI (NCI-H460 lung): 36.5 µM
TGI (T-47D breast): 15.6 µM
TGI (BT-549 breast): 28.8 µM
TGI (SF-268 CNS): 29.8 µM
TGI (HL-60(TB) leukemia): > 100 µM
TGI (HT29 colon): 44.1 µM
TGI (CAKI-1 renal): 9.01 µM
TGI (RXF 393 renal): 18.3 µM
TGI (M14 melanoma): 21.4 µM
TGI (OVCAR-8 ovarian): 29.8 µM

O=C1OC(C2Cc3ccc4c(c3C2=O)CCC4)c2ccccc21 (stereo not given)
TGI (EKVX NSCLC): > 100 µM
TGI (HS 578T breast): > 100 µM
TGI (ACHN renal): > 100 µM
TGI (MALME-3M melanoma): > 100 µM
TGI (COLO 205 colon): 45.8 µM
TGI (SN12C renal): > 100 µM
TGI (HCC-2998 colon): > 100 µM
TGI (SR leukemia): > 100 µM
TGI (HCT-15 colon): > 100 µM
TGI (UO-31 renal): > 100 µM
TGI (NCI-H460 lung): > 100 µM
TGI (T-47D breast): > 100 µM
TGI (BT-549 breast): > 100 µM
TGI (SF-268 CNS): > 100 µM
TGI (HL-60(TB) leukemia): 83.1 µM
TGI (HT29 colon): > 100 µM
TGI (CAKI-1 renal): > 100 µM
TGI (RXF 393 renal): > 100 µM
TGI (M14 melanoma): > 100 µM
TGI (OVCAR-8 ovarian): > 100 µM

CCC1(CC)C(=O)N(C(=O)c2ccccc2)N(C(=O)c2ccc(Cl)cc2)C1=O
TGI (EKVX NSCLC): > 75 µM
TGI (HS 578T breast): > 75 µM
TGI (ACHN renal): > 75 µM
TGI (MALME-3M melanoma): > 75 µM
TGI (COLO 205 colon): > 75 µM
TGI (SN12C renal): > 75 µM
TGI (HCC-2998 colon): > 75 µM
TGI (SR leukemia): 53.6 µM
TGI (HCT-15 colon): > 75 µM
TGI (UO-31 renal): > 75 µM
TGI (NCI-H460 lung): > 75 µM
TGI (T-47D breast): > 75 µM
TGI (BT-549 breast): > 75 µM
TGI (SF-268 CNS): > 75 µM
TGI (HL-60(TB) leukemia): > 75 µM
TGI (HT29 colon): > 75 µM
TGI (CAKI-1 renal): > 75 µM
TGI (RXF 393 renal): > 75 µM
TGI (M14 melanoma): > 75 µM
TGI (OVCAR-8 ovarian): > 75 µM

O=c1cc(NNCc2ccccc2)[nH]c(=O)[nH]1
TGI (EKVX NSCLC): > 100 µM
TGI (HS 578T breast): > 100 µM
TGI (ACHN renal): > 100 µM
TGI (MALME-3M melanoma): > 100 µM
TGI (COLO 205 colon): > 100 µM
TGI (SN12C renal): > 100 µM
TGI (HCC-2998 colon): > 100 µM
TGI (SR leukemia): > 100 µM
TGI (HCT-15 colon): > 100 µM
TGI (UO-31 renal): > 100 µM
TGI (NCI-H460 lung): > 100 µM
TGI (T-47D breast): 67 µM
TGI (BT-549 breast): > 100 µM
TGI (SF-268 CNS): > 100 µM
TGI (HL-60(TB) leukemia): > 100 µM
TGI (HT29 colon): > 100 µM
TGI (CAKI-1 renal): > 100 µM
TGI (RXF 393 renal): > 100 µM
TGI (M14 melanoma): > 100 µM
TGI (OVCAR-8 ovarian): > 100 µM

COc1ccc2c(=O)cc(-c3ccc(OC)c(OC)c3OC)oc2c1
TGI (EKVX NSCLC): > 100 µM
TGI (HS 578T breast): > 100 µM
TGI (ACHN renal): > 100 µM
TGI (MALME-3M melanoma): > 100 µM
TGI (COLO 205 colon): > 100 µM
TGI (SN12C renal): > 100 µM
TGI (HCC-2998 colon): > 100 µM
TGI (SR leukemia): > 100 µM
TGI (HCT-15 colon): > 100 µM
TGI (UO-31 renal): > 100 µM
TGI (NCI-H460 lung): > 100 µM
TGI (T-47D breast): > 100 µM
TGI (BT-549 breast): > 100 µM
TGI (SF-268 CNS): > 100 µM
TGI (HL-60(TB) leukemia): > 62.4 µM
TGI (HT29 colon): > 100 µM
TGI (CAKI-1 renal): > 100 µM
TGI (RXF 393 renal): > 100 µM
TGI (M14 melanoma): > 100 µM
TGI (OVCAR-8 ovarian): > 100 µM

O=C1/C(=C/c2ccc(O)cc2)CCc2ccc([N+](=O)[O-])cc21
TGI (EKVX NSCLC): > 100 µM
TGI (HS 578T breast): > 79.8 µM
TGI (ACHN renal): > 100 µM
TGI (MALME-3M melanoma): > 100 µM
TGI (COLO 205 colon): > 100 µM
TGI (SN12C renal): > 100 µM
TGI (HCC-2998 colon): > 100 µM
TGI (SR leukemia): > 100 µM
TGI (HCT-15 colon): > 100 µM
TGI (UO-31 renal): > 81.6 µM
TGI (NCI-H460 lung): > 100 µM
TGI (T-47D breast): > 100 µM
TGI (BT-549 breast): > 100 µM
TGI (SF-268 CNS): > 100 µM
TGI (HL-60(TB) leukemia): > 100 µM
TGI (HT29 colon): > 100 µM
TGI (CAKI-1 renal): > 100 µM
TGI (RXF 393 renal): > 92.3 µM
TGI (M14 melanoma): > 100 µM
TGI (OVCAR-8 ovarian): > 100 µM

COC(=O)c1ccccc1CC1Cc2cc3c(cc2C1=O)CCC3 (stereo not given)
TGI (EKVX NSCLC): > 100 µM
TGI (HS 578T breast): 86.6 µM
TGI (ACHN renal): > 100 µM
TGI (MALME-3M melanoma): 69.2 µM
TGI (COLO 205 colon): 28.4 µM
TGI (SN12C renal): > 67.2 µM
TGI (HCC-2998 colon): > 100 µM
TGI (SR leukemia): > 69 µM
TGI (HCT-15 colon): > 67.3 µM
TGI (UO-31 renal): 86.3 µM
TGI (NCI-H460 lung): > 71.4 µM
TGI (T-47D breast): 69.9 µM
TGI (BT-549 breast): 31.8 µM
TGI (SF-268 CNS): > 100 µM
TGI (HL-60(TB) leukemia): 27.6 µM
TGI (HT29 colon): 41.4 µM
TGI (CAKI-1 renal): > 100 µM
TGI (RXF 393 renal): 17.1 µM
TGI (M14 melanoma): 44.5 µM
TGI (OVCAR-8 ovarian): > 80.8 µM

COc1ccc2c(c1)-c1c(c3cc(OC)ccc3n1CCCN(C)C)CC2
TGI (EKVX NSCLC): 31.4 µM
TGI (HS 578T breast): 20.5 µM
TGI (ACHN renal): 35.9 µM
TGI (MALME-3M melanoma): 5.47 µM
TGI (COLO 205 colon): 5.9 µM
TGI (SN12C renal): 28.5 µM
TGI (HCC-2998 colon): 10.2 µM
TGI (SR leukemia): 22.1 µM
TGI (HCT-15 colon): 32.1 µM
TGI (UO-31 renal): 26.7 µM
TGI (NCI-H460 lung): 42.9 µM
TGI (T-47D breast): 24.8 µM
TGI (BT-549 breast): 32.2 µM
TGI (SF-268 CNS): 26.2 µM
TGI (HL-60(TB) leukemia): 55.3 µM
TGI (HT29 colon): 13.9 µM
TGI (CAKI-1 renal): 28.1 µM
TGI (RXF 393 renal): 20.2 µM
TGI (M14 melanoma): 4.8 µM
TGI (OVCAR-8 ovarian): 30.7 µM
